Data from patent US11053204B2, “Pyrimidinyloxy benzene derivatives as herbicides” (FMC Corporation, priority 2015, dated 2021).

What was measured:
Type in all cases: in vivo
[1] = test system: Italian ryegrass (Lolium multiflorum); assay: Test A preemergence, visual injury rating
Procedure, shortened: (§1)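 Scoring: eye-based comparison with untreated controls, 0 for no effect through 100 for complete control, at about day 10. Treatments: directed soil spray preemergence; foliar spray postemergence on 2–10 cm plants at the one- to two-leaf stage. Medium: loam soil with sand.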

[2] = test system: barnyardgrass (Echinochloa crus-galli); assay: Test A preemergence, visual injury rating
Procedure, shortened: as §1

[3] = test system: giant foxtail (Setaria faberii); assay: Test A preemergence, visual injury rating
Procedure, shortened: as §1

kochia (Kochia scoparia) = assay: Test A preemergence, visual injury rating
Procedure, shortened: as §1

[4] = test system: pigweed (Amaranthus retroflexus); assay: Test A preemergence, visual injury rating
Procedure, shortened: as §1

[5] = test system: ragweed (common ragweed, Ambrosia elatior); assay: Test A preemergence, visual injury rating
Procedure, shortened: as §1

[6] = test system: barnyardgrass (Echinochloa crus-galli); assay: Test B flooded paddy test, plant response rating; conditions: Echinochloa crus-galli, 312 h; 250 g ai/ha; Flood; scale of 0 to 100 where 0 is no effect and 100 is complete control; 13 to 15 days
Procedure, shortened: (§2)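 In-water treatment: compound dosed into 3 cm flood over soil, water level unchanged throughout. Controls run alongside; visual assessment at day 13–15.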

[7] = test system: ducksalad (Heteranthera limosa); assay: Test B flooded paddy test, plant response rating; conditions: Heteranthera limosa, 312 h; 250 g ai/ha; Flood; scale of 0 to 100 where 0 is no effect and 100 is complete control; 13 to 15 days
Procedure, shortened: as §2

rice (Oryza sativa) = assay: Test B flooded paddy test, plant response rating; conditions: Oryza sativa, 312 h; 250 g ai/ha; Flood; scale of 0 to 100 where 0 is no effect and 100 is complete control; 13 to 15 days
Procedure, shortened: as §2

[8] = test system: sedge, umbrella (small-flower umbrella sedge, Cyperus difformis); assay: Test B flooded paddy test, plant response rating; conditions: Cyperus difformis, 312 h; 250 g ai/ha; Flood; scale of 0 to 100 where 0 is no effect and 100 is complete control; 13 to 15 days
Procedure, shortened: as §2

[9] = test system: blackgrass (Alopecurus myosuroides); assay: Test C preemergence, plant response rating; conditions: Alopecurus myosuroides, pre-emergence, Preemergence
Procedure, shortened: (§3)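 Pre-emergence: seeds sown in loam soil–sand blend or silt loam and sprayed with test chemicals in a non-phytotoxic solvent mixture with surfactant. Post-emergence: plants 2 to 18 cm (1- to 4-leaf stage) in peat-based potting medium, same formulation. Greenhouse 13 to 15 d; visual rating 0 (no effect) to 100 (complete control) versus controls.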

corn (Zea mays) = assay: Test C preemergence, plant response rating; conditions: Zea mays, pre-emergence, Preemergence
Procedure, shortened: as §3

[10] = test system: crabgrass, large (large crabgrass, Digitaria sanguinalis); assay: Test C preemergence, plant response rating; conditions: Digitaria sanguinalis, pre-emergence, Preemergence
Procedure, shortened: as §3

[11] = test system: foxtail, giant (giant foxtail, Setaria faberii); assay: Test C preemergence, plant response rating; conditions: Setaria faberi, pre-emergence, Preemergence
Procedure, shortened: as §3

[12] = test system: oilseed rape (Brassica napus); assay: Test C preemergence, plant response rating; conditions: Brassica napus, pre-emergence, Preemergence
Procedure, shortened: as §3

[13] = test system: ragweed (common ragweed, Ambrosia elatior); assay: Test C preemergence, plant response rating; conditions: Ambrosia artemisiifolia, pre-emergence, Preemergence
Procedure, shortened: as §3

[14] = test system: ryegrass, Italian (Italian ryegrass, Lolium multiflorum); assay: Test C preemergence, plant response rating; conditions: Lolium multiflorum, pre-emergence, Preemergence
Procedure, shortened: as §3

soybean (Glycine max) = assay: Test C preemergence, plant response rating; conditions: Glycine max, pre-emergence, Preemergence
Procedure, shortened: as §3

[15] = 31 g ai/ha, 0 to 100 scale, 0 no effect, 100 complete control
[16] = 125 g ai/ha, 0 to 100 scale (0 no effect, 100 complete control)

O=C(CCC(F)(F)F)c1c(Cl)cccc1Oc1ncc(Cl)cn1 [Compound 107, 1-[2-chloro-6-[(5-chloro-2-pyrimidinyl)oxy]phenyl]-4,4,4-trifluoro-1-butanone]
Plant response rating, Ryegrass, Italian [1, 15]: 30 | Plant response rating, Ryegrass, Italian [1, 16]: 80 | Plant response rating, Barnyardgrass [2, 15]: 90 | pest or weed control at 125 g/ha ([2]; Echinochloa crus-galli, pre-emergence, 240 h, 125 g ai/ha, 0 to 100 scale (0 no effect, 100 complete control), read-out: Barnyardgrass plant response rating): 100% | Plant response rating, Foxtail, Giant [3, 15]: 100 | Plant response rating, Foxtail, Giant [3, 16]: 100 | Plant response rating, Kochia (kochia (Kochia scoparia); [15]): 90 | Plant response rating, Kochia (kochia (Kochia scoparia); [16]): 100 | Plant response rating, Pigweed [4, 15]: 100 | Plant response rating, Pigweed [4, 16]: 100 | Plant response rating, Ragweed [5, 15]: 0 | Plant response rating, Ragweed [5, 16]: 20 | pest or weed control at 250 g/ha [6]: 50% | pest or weed control at 250 g/ha [7]: 95% | plant injury at 250 g/ha (rice (Oryza sativa)): 35% | pest or weed control at 250 g/ha [8]: 95% | pest or weed control at 125 g/ha ([9]; 125 g ai/ha, scale of 0 to 100): 90% | pest or weed control at 16 g/ha ([9]; 16 g ai/ha, scale 0 to 100): 60% | pest or weed control at 31 g/ha ([9]; 31 g ai/ha, scale 0 to 100): 90% | pest or weed control at 62 g/ha ([9]; 62 g ai/ha, scale 0 to 100): 90% | Corn plant response rating (crop injury, 0 = no effect, 100 = complete kill) at 125 g/ha (corn (Zea mays); 125 g ai/ha, scale of 0 to 100): 45% | Corn plant response rating (crop injury, 0 = no effect, 100 = complete kill) at 16 g/ha (corn (Zea mays); 16 g ai/ha, scale 0 to 100): 0% | Corn plant response rating (crop injury, 0 = no effect, 100 = complete kill) at 31 g/ha (corn (Zea mays); 31 g ai/ha, scale 0 to 100): 0% | Corn plant response rating (crop injury, 0 = no effect, 100 = complete kill) at 62 g/ha (corn (Zea mays); 62 g ai/ha, scale 0 to 100): 15% | pest or weed control at 125 g/ha ([10]; 125 g ai/ha, scale of 0 to 100): 100% | pest or weed control at 16 g/ha ([10]; 16 g ai/ha, scale 0 to 100): 98% | pest or weed control at 31 g/ha ([10]; 31 g ai/ha, scale 0 to 100): 98% | pest or weed control at 62 g/ha ([10]; 62 g ai/ha, scale 0 to 100): 100% | pest or weed control at 125 g/ha ([11]; 125 g ai/ha, scale of 0 to 100): 98% | pest or weed control at 31 g/ha ([11]; 31 g ai/ha, scale 0 to 100): 98% | pest or weed control at 62 g/ha ([11]; 62 g ai/ha, scale 0 to 100): 98% | plant injury at 125 g/ha ([12]; 125 g ai/ha, scale of 0 to 100): 98% | plant injury at 31 g/ha ([12]; 31 g ai/ha, scale 0 to 100): 40% | plant injury at 62 g/ha ([12]; 62 g ai/ha, scale 0 to 100): 85% | pest or weed control at 125 g/ha ([13]; 125 g ai/ha, scale of 0 to 100): 50% | pest or weed control at 31 g/ha ([13]; 31 g ai/ha, scale 0 to 100): 30% | pest or weed control at 62 g/ha ([13]; 62 g ai/ha, scale 0 to 100): 50% | pest or weed control at 125 g/ha ([14]; 125 g ai/ha, scale of 0 to 100): 90% | pest or weed control at 31 g/ha ([14]; 31 g ai/ha, scale 0 to 100): 35% | pest or weed control at 62 g/ha ([14]; 62 g ai/ha, scale 0 to 100): 70% | plant injury at 125 g/ha (soybean (Glycine max); 125 g ai/ha, scale of 0 to 100): 45% | plant injury at 31 g/ha (soybean (Glycine max); 31 g ai/ha, scale 0 to 100): 20% | plant injury at 62 g/ha (soybean (Glycine max); 62 g ai/ha, scale 0 to 100): 35%
